Converted amounts (≈) assume the structure as drawn. Read-outs that look alike come from different tables or passages of the source.
Columns and labels:
C. albicans = experiment: Broth dilution antifungal susceptibility testing, C. albicans; type: cell-based, Candida albicans; conditions: Candida albicans, 50% reduction in turbidity, read-out: minimum inhibitory concentration (MIC)
Experimental: (§1) A total of 23 isolates were tested to include 3 Candida albicans, 3 Candida glabrata, 3 Cryptococcus neoformans, 3 Aspergillus fumigatus, 3 Rhizopus oryzae, 3, Fusarium solani, 3 Pseudallescheria boydii, and 2 […]. All isolates were clinical isolates submitted to the Fungus Testing Laboratory for evaluation. Antifungal susceptibility testing was accomplished according to the methods outlined in the National Committee for Clinical Laboratory Standards, M-27A2, Reference Method for Broth Dilution Antifungal Susceptibility Testing of Yeasts; Approved Standard, and M38-A “Reference Method for Broth Dilution Antifungal Susceptibility Testing of Conidium-Forming Filamentous Fungi; Approved Standard”. This includes testing in RPMI-1640 with glutamine and without bicarbonate, an inoculum size of 0.5-2.5×10^3 for yeasts or […] for moulds, and incubation at 35° C. for 24 and 48 hours. […] Drug concentrations were 0.125-64 μg/ml. A 10 mg portion of each powder was weighed out and added to 1 ml of 100% DMSO for compound 205. The resulting concentration of […] was diluted to a working concentration of 6400 μg/ml for compound 205 in 100% DMSO. All subsequent dilutions were also made using the respective diluents. Final testing concentrations ranged from 0.125-64 μg/ml. The NCCLS recommended medium RPMI-1640 (Hardy Diagnostics, Santa Monica, Calif.) was utilized as the test medium. All isolates in this study were clinical isolates received in the Fungus Testing Laboratory for standard antifungal susceptibility testing and/or identification. Isolates, which were not sent for identification, were confirmed to assure testing integrity. A total of 23 were tested to include 3 Candida albicans, 3 Candida glabrata, 3 Cryptococcus neoformans, 3 Aspergillus fumigatus, 3 Rhizopus oryzae, 3, Fusarium solani, 3 Pseudallescheria boydii, and 2 […]. Minimum inhibitory concentrations (MIC) were determined at the first 24-hour interval where growth could be determined in the drug-free control tube.

C. glabrata = experiment: Broth dilution antifungal susceptibility testing, C. glabrata; type: cell-based, Candida glabrata; conditions: Nakaseomyces glabratus, 50% reduction in turbidity, read-out: minimum inhibitory concentration (MIC)
Experimental: as §1

C. neoformans = experiment: Broth dilution antifungal susceptibility testing, C. neoformans; type: cell-based; conditions: Cryptococcus neoformans, 50% reduction in turbidity, read-out: minimum inhibitory concentration (MIC)
Experimental: as §1

R. arrhizus = experiment: Broth dilution antifungal susceptibility testing, R. arrhizus; type: cell-based, Rhizopus oryzae; conditions: Rhizopus arrhizus, 80% inhibition, read-out: minimum inhibitory concentration (MIC)
Experimental: as §1

F. solani = experiment: Broth dilution antifungal susceptibility testing, F. solani; type: cell-based; conditions: Fusarium solani, 80% inhibition, read-out: minimum inhibitory concentration (MIC)
Experimental: as §1

S. apiospermum = experiment: Broth dilution antifungal susceptibility testing, S. apiospermum; type: cell-based, Pseudallescheria boydii; conditions: Scedosporium apiospermum, 80% inhibition, read-out: minimum inhibitory concentration (MIC)
Experimental: as §1

A. fumigatus = experiment: Broth dilution antifungal susceptibility testing, A. fumigatus; type: cell-based, Aspergillus fumigatus; conditions: Aspergillus fumigatus, 80% inhibition, read-out: minimum inhibitory concentration (MIC)
Experimental: as §1

T. rubrum = experiment: Broth dilution antifungal susceptibility testing, T. rubrum; type: cell-based, Trichophyton rubrum; conditions: Trichophyton rubrum, 80% inhibition, read-out: minimum inhibitory concentration (MIC)
Experimental: as §1

Nc1ccc(NC(=O)CCCCCNC(=O)c2ccccc2S)cc1 [Compound 209, 2-Mercapto-N-[5-(4-Aminophenylcarbamoyl)-pentyl]benzamide]
MIC (C. albicans; 24 h, isolate 07-3006, 24 hours): 2 µg/mL (≈ 5.59 µM)
MIC (C. albicans; 24 h, isolate 07-3011, 24 hours): 2 µg/mL (≈ 5.59 µM)
MIC (C. albicans; 24 h, isolate 07-3012, 24 hours): 2 µg/mL (≈ 5.59 µM)
MIC (C. albicans; 48 h, isolate 07-3006, 48 hours): 32 µg/mL (≈ 89.5 µM)
MIC (C. albicans; 48 h, isolate 07-3011, 48 hours): 32 µg/mL (≈ 89.5 µM)
MIC (C. albicans; 48 h, isolate 07-3012, 48 hours): 32 µg/mL (≈ 89.5 µM)
MIC (C. glabrata; 24 h, isolate 07-2964, 24 hours): 2 µg/mL (≈ 5.59 µM)
MIC (C. glabrata; 24 h, isolate 07-2965, 24 hours): 2 µg/mL (≈ 5.59 µM)
MIC (C. glabrata; 24 h, isolate 07-3013, 24 hours): 2 µg/mL (≈ 5.59 µM)
MIC (C. glabrata; 48 h, isolate 07-2964, 48 hours): 32 µg/mL (≈ 89.5 µM)
MIC (C. glabrata; 48 h, isolate 07-2965, 48 hours): 32 µg/mL (≈ 89.5 µM)
MIC (C. glabrata; 48 h, isolate 07-3013, 48 hours): 32 µg/mL (≈ 89.5 µM)
MIC (C. neoformans; 24 h, isolate 07-2665, 24 hours): 32 µg/mL (≈ 89.5 µM)
MIC (C. neoformans; 24 h, isolate 07-2737, 24 hours): 8 µg/mL (≈ 22.4 µM)
MIC (C. neoformans; 24 h, isolate 07-2829, 24 hours): 16 µg/mL (≈ 44.8 µM)
MIC (C. neoformans; 48 h, isolate 07-2665, 48 hours): 32 µg/mL (≈ 89.5 µM)
MIC (C. neoformans; 48 h, isolate 07-2737, 48 hours): 16 µg/mL (≈ 44.8 µM)
MIC (C. neoformans; 48 h, isolate 07-2829, 48 hours): 16 µg/mL (≈ 44.8 µM)
MIC (R. arrhizus; 24 h, isolate 07-1870, 24 hours): 2 µg/mL (≈ 5.59 µM)
MIC (R. arrhizus; 24 h, isolate 07-2044, 24 hours): 2 µg/mL (≈ 5.59 µM)
MIC (R. arrhizus; 24 h, isolate 07-2078, 24 hours): > 64 µg/mL
MIC (R. arrhizus; 48 h, isolate 07-1870, 48 hours): > 64 µg/mL
MIC (R. arrhizus; 48 h, isolate 07-2044, 48 hours): > 64 µg/mL
MIC (R. arrhizus; 48 h, isolate 07-2078, 48 hours): > 64 µg/mL
MIC (F. solani; 24 h, isolate 07-1399, 24 hours): > 64 µg/mL
MIC (F. solani; 24 h, isolate 07-1755, 24 hours): > 64 µg/mL
MIC (F. solani; 24 h, isolate 07-1867, 24 hours): > 64 µg/mL
MIC (F. solani; 48 h, isolate 07-1399, 48 hours): > 64 µg/mL
MIC (F. solani; 48 h, isolate 07-1755, 48 hours): > 64 µg/mL
MIC (F. solani; 48 h, isolate 07-1867, 48 hours): > 64 µg/mL
MIC (S. apiospermum; 24 h, isolate 07-1333, 24 hours): 64 µg/mL (≈ 179 µM)
MIC (S. apiospermum; 24 h, isolate 07-1502, 24 hours): 32 µg/mL (≈ 89.5 µM)
MIC (S. apiospermum; 24 h, isolate 07-1601, 24 hours): 8 µg/mL (≈ 22.4 µM)
MIC (S. apiospermum; 48 h, isolate 07-1333, 48 hours): > 64 µg/mL
MIC (S. apiospermum; 48 h, isolate 07-1502, 48 hours): > 64 µg/mL
MIC (S. apiospermum; 48 h, isolate 07-1601, 48 hours): > 64 µg/mL
MIC (A. fumigatus; 24 h, isolate 05-388, 24 hours): 16 µg/mL (≈ 44.8 µM)
MIC (A. fumigatus; 24 h, isolate 06-4126, 24 hours): 16 µg/mL (≈ 44.8 µM)
MIC (A. fumigatus; 24 h, isolate 07-2039, 24 hours): 32 µg/mL (≈ 89.5 µM)
MIC (A. fumigatus; 48 h, isolate 05-388, 48 hours): > 64 µg/mL
MIC (A. fumigatus; 48 h, isolate 06-4126, 48 hours): > 64 µg/mL
MIC (A. fumigatus; 48 h, isolate 07-2039, 48 hours): > 64 µg/mL
MIC (T. rubrum; 24 h, isolate 07-1743, 24 hours): 8 µg/mL (≈ 22.4 µM)
MIC (T. rubrum; 24 h, isolate 07-2055, 24 hours): 8 µg/mL (≈ 22.4 µM)
MIC (T. rubrum; 48 h, isolate 07-1743, 48 hours): 8 µg/mL (≈ 22.4 µM)
MIC (T. rubrum; 48 h, isolate 07-2055, 48 hours): 8 µg/mL (≈ 22.4 µM)

— patent US8455688B2, “HDAC inhibitors” (Lixte Biotechnology, Inc., priority 2007, dated 2013)
